Measured values published in ChEMBL document CHEMBL3576772, “Fibroblast Growth Factor Receptor 3 (FGF-R3): A Promising Therapeutic Target for the Treatment of Bladder Cancer” (2015).

Assays:
[1] = Inhibition of serum-induced proliferation of human TCC97-7 cells carrying FGFR3 Ser249Cys mutation at 1 uM after 3 days; type: functional; conditions: TCC97-7, 72 h
[2] = Inhibition of serum-induced proliferation of human TCC97-7 cells carrying FGFR3 Ser249Cys mutation at 10 uM after 3 days; type: functional; conditions: TCC97-7, 72 h
[3] = test system: Fibroblast growth factor receptor 3 (Homo sapiens), P22607 [S249C]; assay: Antagonist activity against FGFR3 Ser249Cys mutant in human TCC97-7 cells cultured in serum-supplemented medium assessed as reduction in ATP content at 1 um after 3 days by cell titer-Glo luminescent cell viability assay; type: cell-based
[4] = test system: Fibroblast growth factor receptor 3 (Homo sapiens), P22607 [S249C]; assay: Antagonist activity against FGFR3 Ser249Cys mutant in human TCC97-7 cells cultured in serum-supplemented medium assessed as reduction in ATP content at 10 um after 3 days by cell titer-Glo luminescent cell viability assay; type: cell-based

Chain of Fibroblast growth factor receptor 3 (Homo sapiens), P22607 [S249C] (P22607 whole entry S249C): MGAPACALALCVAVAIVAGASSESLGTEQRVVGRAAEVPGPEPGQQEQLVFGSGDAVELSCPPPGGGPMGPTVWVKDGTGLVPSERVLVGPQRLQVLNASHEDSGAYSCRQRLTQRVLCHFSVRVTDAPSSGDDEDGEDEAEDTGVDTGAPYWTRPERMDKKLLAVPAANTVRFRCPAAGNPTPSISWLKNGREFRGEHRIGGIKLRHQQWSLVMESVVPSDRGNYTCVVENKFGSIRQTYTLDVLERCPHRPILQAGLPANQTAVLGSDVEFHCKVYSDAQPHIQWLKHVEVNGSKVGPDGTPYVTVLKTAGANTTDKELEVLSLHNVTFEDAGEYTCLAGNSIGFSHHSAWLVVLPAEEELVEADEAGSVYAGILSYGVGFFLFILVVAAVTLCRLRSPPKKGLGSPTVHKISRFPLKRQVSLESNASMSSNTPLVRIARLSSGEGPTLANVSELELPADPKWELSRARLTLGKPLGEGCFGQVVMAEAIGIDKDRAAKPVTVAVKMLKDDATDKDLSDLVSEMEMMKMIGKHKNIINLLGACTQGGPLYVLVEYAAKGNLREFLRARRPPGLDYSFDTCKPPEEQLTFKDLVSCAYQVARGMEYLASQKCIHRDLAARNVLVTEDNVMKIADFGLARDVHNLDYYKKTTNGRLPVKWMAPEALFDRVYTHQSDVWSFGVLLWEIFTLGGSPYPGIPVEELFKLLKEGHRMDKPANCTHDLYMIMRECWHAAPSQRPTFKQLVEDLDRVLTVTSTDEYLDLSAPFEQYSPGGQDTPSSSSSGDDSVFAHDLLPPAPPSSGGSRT

| Structure (SMILES) | inhibition at 1 µM [1] [%] | inhibition at 10 µM [2] [%] | inhibition [3] [%] | inhibition [4] [%] |
| --- | --- | --- | --- | --- |
| O=C(c1cccc(-c2cc(C(F)F)c3c(-c4ccccc4)n[nH]c3n2)c1)N1CCCC1 | 16.2 | 83.9 | 26.9 | 90.5 |
| Cn1nc(-c2ccccc2)c2c(C(F)(F)F)cc(-c3ccc(C(=O)O)cc3)nc21 | 8 | 33 | 17 | 40 |
| Cn1nc(-c2ccccc2)c2c(C(F)(F)F)cc(-c3cccc(C(N)=O)c3)nc21 | 8 | 91.6 | 10.9 | 41.1 |
| O=c1[nH]c2ccc(-c3cc(C(F)(F)F)c4c(-c5ccccc5)n[nH]c4n3)cc2[nH]1 | -3 | 29 |  | 19 |
